Like-named read-outs stand apart in the source and are kept apart here.
Assays:
[1] = system: T-cell; type: cell-based, mice
[2] = system: T-cell; type: cell-based, human
[3] = system: Aβ (SEQ ID NO:2); test: Anti-Aβ antibody titer in serum of transnasally vaccinated mice, ELISA (Experiment 1); type: in vivo, BALB/c female mice; conditions: BALB/c mice, transnasal 50 μg/mouse/once, four times at two weeks interval, serum one week after last administration
Source text: The results are in Table 1.

Substance | Induction of blastogenesis of the T-cell [1] | Induction of blastogenesis of the T-cell [2] | Antibody titer Anti-Aβ antibody [3]
AYNFVESIINLFQVVHNSYN (diphtheria toxoid (partial sequence)) [DTL] | inducing the blastogenesis of the T-cell | inducing the blastogenesis of the T-cell | –
QYIVNEDKFQILYNSIMYGF (tetanus toxoid (partial sequence)) [TetT3L] | inducing the blastogenesis of the T-cell | inducing the blastogenesis of the T-cell | –
RGD-Gag-KK-Aβ(1-11): RGD motif, Gag T-cell epitope (HIV-1 Gag 298-312), KK linker, Aβ(1-11) B-cell epitope (RGDKRWIILGLNKIVRMYKKDAEFRHDSGYE; peptide for the production of anti-amyloid beta antibody) | – | – | 14.9
RGD-Gag-KK-Aβ(1-13): RGD motif, Gag T-cell epitope (HIV-1 Gag 298-312), KK linker, Aβ(1-13) B-cell epitope (RGDKRWIILGLNKIVRMYKKDAEFRHDSGYEVH; peptide for the production of anti-amyloid beta antibody) | – | – | 32
RGD-Gag-KK-Aβ(3-11): RGD motif, Gag T-cell epitope (HIV-1 Gag 298-312), KK linker, Aβ(3-11) B-cell epitope (RGDKRWIILGLNKIVRMYKKEFRHDSGYE; peptide for the production of anti-amyloid beta antibody) | – | – | 22.6
